“Also recorded” adds a separate entry of the source.
Experiments:
Assay type in all cases: cell-based, human
[1] = test system: HEY cells; assay: microarray profiling (Affymetrix HG-U133 Plus 2.0) of miR-429 transfected HEY cells; conditions: for Fold-change: miR-429 transfected HEY cells
Protocol: (§1) 6×10^4 cells per well were seeded in 24-well plates. After 24 h, cells were transfected with 30 nM of miR-429 and miR-320 miRNA oligonucleotides (Ambion, Austin, Tex.) using Lipofectamine 2000 reagent (Invitrogen, Carlsbad, Calif.). The Ambion Pre-miRNA Precursor Negative Control was used as a control. Three days after transfection, cells were split and transfected again. This process was repeated every 3 days until 21 days when cells were assayed for response.
Microarray analyses were performed using the Affymetrix system (HG-U133 Plus 2.0; Santa Clara, Calif.) as previously described [Bowen et al., BMC Med Genomics 2009, 2:71]. Briefly, the expression data were analyzed using MAS 5.0 Statistical Algorithm encoded in the Affymetrix Expression Console application. The expression values were normalized across samples by Z-score calculation using Spotfire Decision Site software. […] Gene enrichment analyses were carried out using GeneGO (http://www.genego.com/) gene ontology software.

[2] = test system: HEY cells; assay: morphology of HEY cells after microRNA transfection; conditions: transfected with 30 nM miRNA, vs negative control
Excerpt: The OVCAR3 cell line was originally established from the ascites of a patient with poorly differentiated papillary epithelial OC [Hamilton et al., Cancer Res 1985, 45:3668-76]. The OVCAR3 cell line was obtained from the American Type Culture Collection (Manassas, Va.). The HEY cell line was derived from a patient with moderately differentiated papillary cystadenocarcinoma of the ovary [Buick et al., Cancer Res 1985, 45:3668-76]. The HEY cell line was kindly provided by Gordon Mills, Department of Molecular Therapeutics, University of Texas, MD Anderson Cancer Center.
as §1

[3] = test system: HEY cells; assay: sensitivity of transfected HEY cells to cisplatin; conditions: miR-429 vs negative control miRNA
Protocol: Cultures of the mesenchymal HEY cells were transfected with a negative control (NC) miRNA or miR-429 using Lipofectamine 2000 (Invitrogen) and treated with increasing concentrations of cisplatin. (0.1, 0.5, 1, 3, 5, 7, 10, 15, 20, 30, 50 μM).

[4] = miR-429 transfected cells vs controls, p<0.015, fold change 1.5

miR-429: miR-200 family member; mature miRNA UAAUACUGUCUGGUAAAACCGU (SEQ ID NO: 6); miRNA oligonucleotide (Ambion) transfected at 30 nM (listed as RNA, chemistry not given here; listed as Homo sapiens) [miR-200 family member; miRNA oligonucleotide (Ambion) transfected at 30 nM]
Fold change (miR-429 transfected HEY cells relative to negative controls) ([1]; gene LOC158381): −7.31 | Fold change (miR-429 transfected HEY cells relative to negative controls) ([1]; gene LOC284561): −38.32 | Fold change (miR-429 transfected HEY cells relative to negative controls) ([1]; gene LOC286178): −10.56 | Fold-change ([1]; gene LOC339290): −1.87 | Fold change (miR-429 transfected HEY cells relative to negative controls) ([1]; gene LOC401497): −9.19 | Fold change (miR-429 transfected HEY cells relative to negative controls) ([1]; gene LOC439949): −2.48 | Fold change (miR-429 transfected HEY cells relative to negative controls) ([1]; gene LRP4): −2.66 | Fold change (miR-429 transfected HEY cells relative to negative controls) ([1]; gene MARS): −6.59 | Fold change (miR-429 transfected HEY cells relative to negative controls) ([1]; gene MARS2): −2.50 | Fold change (miR-429 transfected HEY cells relative to negative controls) ([1]; gene MERTK): −3.03 | Fold change (miR-429 transfected HEY cells relative to negative controls) ([1]; gene MGC16121): −3.46 | Fold change (miR-429 transfected HEY cells relative to negative controls) ([1]; gene MRAP): −3.05 | Fold change (miR-429 transfected HEY cells relative to negative controls) ([1]; gene NAV3): −4.35 | Fold change (miR-429 transfected HEY cells relative to negative controls) ([1]; gene NOC2L): −26.91 | Fold change (miR-429 transfected HEY cells relative to negative controls) ([1]; gene OSTM1): −4.35 | Fold change (miR-429 transfected HEY cells relative to negative controls) ([1]; gene PAPPA2): −23.75 | Fold change (miR-429 transfected HEY cells relative to negative controls) ([1]; gene PCK2): −4.44 | Fold change (miR-429 transfected HEY cells relative to negative controls) ([1]; gene PCOTH): −13.93 | Fold change (miR-429 transfected HEY cells relative to negative controls) ([1]; gene PHGDH): −3.78 | Fold change (miR-429 transfected HEY cells relative to negative controls) ([1]; gene PITX2): −2.45 | Fold-change ([1]; gene PRTG): −1.61 | Fold change (miR-429 transfected HEY cells relative to negative controls) ([1]; gene PSAT1): −6.92 | Fold change (miR-429 transfected HEY cells relative to negative controls) ([1]; gene PTPN13): −3.10 | Fold change (miR-429 transfected HEY cells relative to negative controls) ([1]; gene PYGO1): −3.61 | Fold-change ([1]; gene RDH10): −2.08 | Fold change (miR-429 transfected HEY cells relative to negative controls) ([1]; gene RGMB): −2.89 | Fold change (miR-429 transfected HEY cells relative to negative controls) ([1]; gene RPL22L1): −2.45 | Fold-change ([1]; gene SENP5): −1.80 | Fold change (miR-429 transfected HEY cells relative to negative controls) ([1]; gene SESN2): −3.61 | Fold change (miR-429 transfected HEY cells relative to negative controls) ([1]; gene SGSH): −2.57 | Fold change (miR-429 transfected HEY cells relative to negative controls) ([1]; gene SH3PXD2B): −5.13 | Fold change (miR-429 transfected HEY cells relative to negative controls) ([1]; gene SHANK2): −10.85 | Fold-change ([1]; gene SHMT2): −2.04 | Fold change (miR-429 transfected HEY cells relative to negative controls) ([1]; gene SLC1A4): −4.32 | Fold change (miR-429 transfected HEY cells relative to negative controls) ([1]; gene SLC1A5): −3.01 | Fold change (miR-429 transfected HEY cells relative to negative controls) ([1]; gene SLC7A11): −5.46 | Fold change (miR-429 transfected HEY cells relative to negative controls) ([1]; gene SLC24A3): −10.20 | Fold change (miR-429 transfected HEY cells relative to negative controls) ([1]; gene SLC27A4): −6.23 | Fold change (miR-429 transfected HEY cells relative to negative controls) ([1]; gene SNORA68): −14.52 | Fold change (miR-429 transfected HEY cells relative to negative controls) ([1]; gene SRCAP): −2.43 | Fold-change ([1]; gene STARD13): −1.78 | Fold change (miR-429 transfected HEY cells relative to negative controls) ([1]; gene SYF2): −12.64 | Fold change (miR-429 transfected HEY cells relative to negative controls) ([1]; gene SYT11): −2.66 | Fold-change ([1]; gene TIGD1): −2.38 | Fold change (miR-429 transfected HEY cells relative to negative controls) ([1]; gene TLR1): −15.24 | Fold change (miR-429 transfected HEY cells relative to negative controls) ([1]; gene TMEM156): −2.79 | Fold change (miR-429 transfected HEY cells relative to negative controls) ([1]; gene TMEM201): −5.58 | Fold-change ([1]; gene TSGA14): −2.33 | change in expression by microarray ([1]; gene TSPAN13 (epithelial marker)): up-regulated | Fold-change ([1]; gene WDR43): −1.88 | Fold change (miR-429 transfected HEY cells relative to negative controls) ([1]; gene YARS): −2.45 | Fold-change ([1]; gene ZBTB24): −1.87 | change in expression by microarray ([1]; gene ZEB2): did not display a significant change in expression | Fold change (miR-429 transfected HEY cells relative to negative controls) ([1]; gene ZNF30): −2.62 | Fold-change ([1]; gene ZNF697): −1.91 | Fold change (miR-429 transfected HEY cells relative to negative controls) ([1]; gene hCG_1654703): −7.46 | number of genes significantly down regulated [1, 4]: 296 genes | number of genes significantly up regulated [1, 4]: 373 genes | number of genes displaying significant changes in expression ([1]; miR-429 transfected cells vs negative control): 669 genes | morphological change of HEY cells [2]: morphological change from an elongated, spindle-shaped, mesenchymal phenotype to a more rounded, epithelial-like phenotype; also recorded: change from an elongated mesenchymal-like morphology to a rounded epithelial-like morphology | sensitivity to cisplatin [3]: increased significantly

Reference: patent US8895509B2, “MIR-200 family induces mesenchymal-to-epithelial transition (MET) in ovarian cancer cells” (Georgia Tech Research Corporation, priority 2010, dated 2014)
